For the assay, the system named is human mixed lymphocyte reaction (MLR). The experiment in a line: human mixed lymphocyte reaction (MLR) assay, immunosuppressant activity. It counts as cell-based. The following applies: Table 1. On the procedure: The immunosuppressant activity of the compounds of the present invention was determined using the human mixed lymphocyte reaction (MLR) assay described by Kino, T. et al. in Transplantation Proceedings, XIX(5):36-39,Suppl.
Compound `CC[C@@H]1/C=C(\C)C[C@H](C)C[C@H](OC)[C@H]2O[C@@](O)(C(=O)C(=O)N3CCCC[C@H]3C(=O)O[C@H](/C(C)=C/[C@@H]3CC[C@@H](OC(=O)NNC(N)=O)[C@H](OC)C3)[C@H](C)[C@@H](O)CC1=O)[C@H](C)C[C@@H]2OC` [Example 5] had an IC50 of 8.7 nM. This lies in the single-digit nanomolar range.

In turn, `CC[C@@H]1/C=C(\C)C[C@H](C)C[C@H](OC)[C@H]2O[C@@](O)(C(=O)C(=O)N3CCCC[C@H]3C(=O)O[C@H](/C(C)=C/[C@@H]3CC[C@@H](OC(=O)NOCc4ccccc4)[C@H](OC)C3)[C@H](C)[C@@H](O)CC1=O)[C@H](C)C[C@@H]2OC` [Example 6] returned an IC50 of 0.21 nM. This IC50 is about 41-fold lower than that of the compound before.

In turn, `CC[C@@H]1/C=C(\C)C[C@H](C)C[C@H](OC)[C@H]2O[C@@](O)(C(=O)C(=O)N3CCCC[C@H]3C(=O)O[C@H](/C(C)=C/[C@@H]3CC[C@@H](OC(=O)N4CCOCC4)[C@H](OC)C3)[C@H](C)[C@@H](O)CC1=O)[C@H](C)C[C@@H]2OC` [Example 8] had an IC50 of 0.4 nM.

For the compound `CC[C@@H]1/C=C(\C)C[C@H](C)C[C@H](OC)[C@H]2O[C@@](O)(C(=O)C(=O)N3CCCC[C@H]3C(=O)O[C@H](/C(C)=C/[C@@H]3CC[C@@H](OC(=O)N4CCCCC4)[C@H](OC)C3)[C@H](C)[C@@H](O)CC1=O)[C@H](C)C[C@@H]2OC` [Example 12], half-maximal inhibition (IC50) was put at 1.2 nM. This IC50 is about 3-fold higher than that of the compound before.

Regarding `CC[C@@H]1/C=C(\C)C[C@H](C)C[C@H](OC)[C@H]2O[C@@](O)(C(=O)C(=O)N3CCCC[C@H]3C(=O)O[C@H](/C(C)=C/[C@@H]3CC[C@@H](OC(=O)N(CCO)CCO)[C@H](OC)C3)[C@H](C)[C@@H](O)CC1=O)[C@H](C)C[C@@H]2OC` [Example 13], it took 3.3 nM to reach half-maximal inhibition (IC50).

On to `CC[C@@H]1/C=C(\C)C[C@H](C)C[C@H](OC)[C@H]2O[C@@](O)(C(=O)C(=O)N3CCCC[C@H]3C(=O)O[C@H](/C(C)=C/[C@@H]3CC[C@@H](OC(=O)Nc4ccncc4)[C@H](OC)C3)[C@H](C)[C@@H](O)CC1=O)[C@H](C)C[C@@H]2OC` [Example 14], for which half-maximal inhibition (IC50) was put at 0.48 nM.

Regarding `CC[C@@H]1/C=C(\C)C[C@H](C)C[C@H](OC)[C@H]2O[C@@](O)(C(=O)C(=O)N3CCCC[C@H]3C(=O)O[C@H](/C(C)=C/[C@@H]3CC[C@@H](OC(=O)N4CCC(O)CC4)[C@H](OC)C3)[C@H](C)[C@@H](O)CC1=O)[C@H](C)C[C@@H]2OC` [Example 15], half-maximal inhibition (IC50) was put at 1.34 nM.

The compound `CC[C@@H]1/C=C(\C)C[C@H](C)C[C@H](OC)[C@H]2O[C@@](O)(C(=O)C(=O)N3CCCC[C@H]3C(=O)O[C@H](/C(C)=C/[C@@H]3CC[C@@H](OC(=O)N4CCC(=O)CC4)[C@H](OC)C3)[C@H](C)[C@@H](O)CC1=O)[C@H](C)C[C@@H]2OC` [Example 16] yielded an IC50 of 4.75 nM. Against the preceding compound, the IC50 is about 3.5-fold higher.

`CC[C@@H]1/C=C(\C)C[C@H](C)C[C@H](OC)[C@H]2O[C@@](O)(C(=O)C(=O)N3CCCC[C@H]3C(=O)O[C@H](/C(C)=C/[C@@H]3CC[C@@H](OC(=O)N4CCC(C(=O)O)CC4)[C@H](OC)C3)[C@H](C)[C@@H](O)CC1=O)[C@H](C)C[C@@H]2OC` [Example 18]: the IC50 was determined as 13 nM.

The compound `CC[C@@H]1/C=C(\C)C[C@H](C)C[C@H](OC)[C@H]2O[C@@](O)(C(=O)C(=O)N3CCCC[C@H]3C(=O)O[C@H](/C(C)=C/[C@@H]3CC[C@@H](OC(=O)N4CCC(c5ccccc5)CC4)[C@H](OC)C3)[C@H](C)[C@@H](O)CC1=O)[C@H](C)C[C@@H]2OC` [Example 19] came in with an IC50 of 2.6 nM. Compared with the last compound, the IC50 is about 5-fold lower.

Take `CC[C@@H]1/C=C(\C)C[C@H](C)C[C@H](OC)[C@H]2O[C@@](O)(C(=O)C(=O)N3CCCC[C@H]3C(=O)O[C@H](/C(C)=C/[C@@H]3CC[C@@H](OC(=O)N4CCNCC4)[C@H](OC)C3)[C@H](C)[C@@H](O)CC1=O)[C@H](C)C[C@@H]2OC` [Example 21]: the IC50 was found to be 11 nM.

In turn, `CC[C@@H]1/C=C(\C)C[C@H](C)C[C@H](OC)[C@H]2O[C@@](O)(C(=O)C(=O)N3CCCC[C@H]3C(=O)O[C@H](/C(C)=C/[C@@H]3CC[C@@H](OC(=O)N4CCN(C)CC4)[C@H](OC)C3)[C@H](C)[C@@H](O)CC1=O)[C@H](C)C[C@@H]2OC` [Example 22] had an IC50 of 28 nM. This IC50 is about 2.5-fold higher than that of the compound before.

In turn, `CC[C@@H]1/C=C(\C)C[C@H](C)C[C@H](OC)[C@H]2O[C@@](O)(C(=O)C(=O)N3CCCC[C@H]3C(=O)O[C@H](/C(C)=C/[C@@H]3CC[C@@H](OC(=O)N(C)C[C@H](O)[C@@H](O)[C@H](O)[C@H](O)CO)[C@H](OC)C3)[C@H](C)[C@@H](O)CC1=O)[C@H](C)C[C@@H]2OC` [Example 23] returned an IC50 of 50 nM. This IC50 lies about 1.8-fold higher than the previous one.

As to `CC[C@@H]1/C=C(\C)C[C@H](C)C[C@H](OC)[C@H]2O[C@@](O)(C(=O)C(=O)N3CCCC[C@H]3C(=O)O[C@H](/C(C)=C/[C@@H]3CC[C@@H](OC(=O)N(C)OC)[C@H](OC)C3)[C@H](C)[C@@H](O)CC1=O)[C@H](C)C[C@@H]2OC` [Example 24], 1.1 nM corresponded to half-maximal inhibition (IC50).

`CC[C@@H]1/C=C(\C)C[C@H](C)C[C@H](OC)[C@H]2O[C@@](O)(C(=O)C(=O)N3CCCC[C@H]3C(=O)O[C@H](/C(C)=C/[C@@H]3CC[C@@H](OC(=O)N(C)O)[C@H](OC)C3)[C@H](C)[C@@H](O)CC1=O)[C@H](C)C[C@@H]2OC` [Example 25] displayed an IC50 of 0.28 nM.

The compound `CC[C@@H]1/C=C(\C)C[C@H](C)C[C@H](OC)[C@H]2O[C@@](O)(C(=O)C(=O)N3CCCC[C@H]3C(=O)O[C@H](/C(C)=C/[C@@H]3CC[C@@H](OC(=O)N(O)C4CCCCC4)[C@H](OC)C3)[C@H](C)[C@@H](O)CC1=O)[C@H](C)C[C@@H]2OC` [Example 26] displayed an IC50 of 1 nM.

As for `CC[C@@H]1/C=C(\C)C[C@H](C)C[C@H](OC)[C@H]2O[C@@](O)(C(=O)C(=O)N3CCCC[C@H]3C(=O)O[C@H](/C(C)=C/[C@@H]3CC[C@@H](OC(=O)NO)[C@H](OC)C3)[C@H](C)[C@@H](O)CC1=O)[C@H](C)C[C@@H]2OC` [Example 27], the IC50 is 1.28 nM.

In the case of `CC[C@@H]1/C=C(\C)C[C@H](C)C[C@H](OC)[C@H]2O[C@@](O)(C(=O)C(=O)N3CCCC[C@H]3C(=O)O[C@H](/C(C)=C/[C@@H]3CC[C@@H](OC(=O)N(CC)CCO)[C@H](OC)C3)[C@H](C)[C@@H](O)CC1=O)[C@H](C)C[C@@H]2OC` [Example 28], the half-inhibitory concentration (IC50) was 4.26 nM.

As to `CC[C@@H]1/C=C(\C)C[C@H](C)C[C@H](OC)[C@H]2O[C@@](O)(C(=O)C(=O)N3CCCC[C@H]3C(=O)O[C@H](/C(C)=C/[C@@H]3CC[C@@H](OC(=O)N(C)Cc4ccccc4)[C@H](OC)C3)[C@H](C)[C@@H](O)CC1=O)[C@H](C)C[C@@H]2OC` [Example 29], half-maximal inhibition (IC50) required 4.45 nM.

As for `CC[C@@H]1/C=C(\C)C[C@H](C)C[C@H](OC)[C@H]2O[C@@](O)(C(=O)C(=O)N3CCCC[C@H]3C(=O)O[C@H](/C(C)=C/[C@@H]3CC[C@@H](OC(=O)N(C)CCc4ccccc4)[C@H](OC)C3)[C@H](C)[C@@H](O)CC1=O)[C@H](C)C[C@@H]2OC` [Example 30], the concentration for half-maximal inhibition (IC50) came out at 4.2 nM.

For `CCOC(=O)CN(C)C(=O)O[C@@H]1CC[C@@H](/C=C(\C)[C@H]2OC(=O)[C@@H]3CCCCN3C(=O)C(=O)[C@]3(O)O[C@H]([C@@H](OC)C[C@@H](C)C/C(C)=C/[C@@H](CC)C(=O)C[C@H](O)[C@H]2C)[C@@H](OC)C[C@H]3C)C[C@H]1OC` [Example 32], half-maximal inhibition (IC50) was put at 27 nM.

Take `CC[C@@H]1/C=C(\C)C[C@H](C)C[C@H](OC)[C@H]2O[C@@](O)(C(=O)C(=O)N3CCCC[C@H]3C(=O)O[C@H](/C(C)=C/[C@@H]3CC[C@@H](OC(=O)N4CCOCCOCCOCCOCC4)[C@H](OC)C3)[C@H](C)[C@@H](O)CC1=O)[C@H](C)C[C@@H]2OC` [Example 34]: the IC50 was 1.1 nM.

Compound `CC[C@@H]1/C=C(\C)C[C@H](C)C[C@H](OC)[C@H]2O[C@@](O)(C(=O)C(=O)N3CCCC[C@H]3C(=O)O[C@H](/C(C)=C/[C@@H]3CC[C@@H](OC(=O)N(C)CCN(CC)CC)[C@H](OC)C3)[C@H](C)[C@@H](O)CC1=O)[C@H](C)C[C@@H]2OC` [Example 35] came in with an IC50 of 1.79 nM.

In turn, `CC[C@@H]1/C=C(\C)C[C@H](C)C[C@H](OC)[C@H]2O[C@@](O)(C(=O)C(=O)N3CCCC[C@H]3C(=O)O[C@H](/C(C)=C/[C@@H]3CC[C@@H](OC(=O)N4CCC(C(N)=O)CC4)[C@H](OC)C3)[C@H](C)[C@@H](O)CC1=O)[C@H](C)C[C@@H]2OC` [Example 36] showed a concentration for half-maximal inhibition (IC50) of 15 nM.

For the compound `CC[C@@H]1/C=C(\C)C[C@H](C)C[C@H](OC)[C@H]2O[C@@](O)(C(=O)C(=O)N3CCCC[C@H]3C(=O)O[C@H](/C(C)=C/[C@@H]3CC[C@H](OC(=O)NC(CO)(CO)CO)[C@H](OC)C3)[C@H](C)[C@@H](O)CC1=O)[C@H](C)C[C@@H]2OC` [Example 40], the concentration for half-maximal inhibition (IC50) amounted to 0.68 nM.

Consider `CC[C@@H]1/C=C(\C)C[C@H](C)C[C@H](OC)[C@H]2O[C@@](O)(C(=O)C(=O)N3CCCC[C@H]3C(=O)O[C@H](/C(C)=C/[C@@H]3CC[C@H](OC(=O)N4CCOCC4)[C@H](OC)C3)[C@H](C)[C@@H](O)CC1=O)[C@H](C)C[C@@H]2OC` [Example 41], for which it took 0.08 nM to reach half-maximal inhibition (IC50). Compared with the last compound, the IC50 is about 8.5-fold lower.

In turn, `CC[C@@H]1/C=C(\C)C[C@H](C)C[C@H](OC)[C@H]2O[C@@](O)(C(=O)C(=O)N3CCCC[C@H]3C(=O)O[C@H](/C(C)=C/[C@@H]3CC[C@H](OC(=O)Nc4ccncc4)[C@H](OC)C3)[C@H](C)[C@@H](O)CC1=O)[C@H](C)C[C@@H]2OC` [Example 43] had an IC50 of 0.34 nM.

Turning to `CC[C@@H]1/C=C(\C)C[C@H](C)C[C@H](OC)[C@H]2O[C@@](O)(C(=O)C(=O)N3CCCC[C@H]3C(=O)O[C@H](/C(C)=C/[C@@H]3CC[C@H](OC(=O)N(CCO)CCO)[C@H](OC)C3)[C@H](C)[C@@H](O)CC1=O)[C@H](C)C[C@@H]2OC` [Example 45], the IC50 is 0.11 nM. Compared with the last compound, the IC50 is about 3.1-fold lower.

The IC50 is the concentration at which inhibition is half-maximal. A higher IC50 goes with a need for much substance.

(Values after US5534632A, “Macrocyclic carbamate immunomodulators” (Abbott Laboratories, priority 1994, dated 1996).)
